From patent US20110112308A1 (NOVARTIS AG, priority 2006, published 2011)

What was measured:
Format in all cases: physicochemical
[1] = Solubility, 24-hour equilibration at room temperature; details: for Solubility: approx. at 25° C.
Experimental: Aqueous Solubility: A carefully weighted amount (20-50 mg) of sample is dissolved in 1 ml of solvent with 24-hour equilibration at room temperature. The solubility was determined either gravimetrically or by UV-VIS spectrometry. The pH of the clear solution was also measured. However, the difficulty of determining salt solubilities in water should be stressed, since upon dissolution dissociation to the free form is possible, which affects both the solubility and the pH. It's not unlikely that attempts to make solutions of a salt at a concentration well below the reported solubility of the salt to be unsuccessful (for a full discussion see: M. Pudipeddi, A. T. M. Serajuddin, D. J. W. Grant, and P. H. Stahl in “Handbook of Pharmaceutical Salts Properties Selection and Use” page 27 and references therein).

[2] = pH of saturated solution or 1% suspension in water; details: room temperature
Experimental: pH Value: The pH at room temperature of a saturated solution or 1% suspension of the drug substance in water was recorded.

[3] = Intrinsic dissolution rate, rotation disk method; details: for Intrinsic Dissolution Rate: 37° C., 200 r.p.m.
Experimental: Intrinsic Dissolution: […] […] Pellets of the other salts remained intact for at least several minutes enabling the determination of the intrinsic dissolution rate. Dissolution rate studies were performed using the rotation disk method ([…] Instrument). A single rotation speed of 200 r.p.m. was used to dissolve drug substance into a 500 mL vessel at 37° C. The solution was continuously pumped through a UV cell measurement and returned to the dissolution vessel.

[4] = Solution stability (HPLC); details: for stability characteristics, in words: both in solution and in the solid state; for Unstressed (% Area): unstressed baseline of the stability study
Experimental: (§1) All samples were prepared/diluted to a concentration of 0.2 mg/mL in methanol prior to analysis by HPLC. A freshly prepared sample of each salt was used as the reference standard for external standard calibration analysis.

[5] = Solid-state stability; details: for Bulk stability (XRPD): 1 week
Experimental: as §1

[6] = Stability of mixtures with excipients; details: for stability with all excipient mixtures tested, in words: after 2 weeks at 50° C./75% r.h.
Experimental: as §1

[7] = pH of saturated solution or 1% suspension in water; details: In pH = 6.8 buffer
[8] = Approximate solubility in water and at pH 1 (supplemental testing); details: for Form by XRPD of solid residue, Water: after equilibration in water > 20 hours
Experimental: (§2) An approximate solubility of the below-listed salts was determined in water and at pH 1 by suspending 5-15 mg of the salt in 1 mL of solvent. The samples were allowed to equilibrate at ambient temperature for at least 20 hours. The supernatant was filtered and used for the solubility determination, which was done gravimetrically, for the aqueous solubility, and by UV-VIS spectroscopy for pH 1. The solid residue was analyzed by XRPD. […] They were subsequently analyzed by XRPD and TGA, if the latter deemed necessary. Only irreversible or slowly reversible events can be detected.

[9] = Solid samples held at 93% r.h. (XRPD, TGA); details: 93% r.h., 10 days
Experimental: as §2

[10] = Water, free base pellet disintegrated, not true intrinsic rate
[11] = 2 mg/mL in 100 mM lactate buffer, pH 3.5
[12] = 2 mg/mL in methanol, 1 week at 50° C.
[13] = 2 mg/mL in water, 1 week at 50° C.
[14] = 2 mg/mL, 100 mM lactate buffer pH 3.5, 1 week at 50° C.
[15] = 2 mg/mL, 100 mM lactate buffer pH 3.5, 1 week at 50° C., external standard
[16] = 2% in 0.5% HPMC 4000, 1 day at RT
[17] = 2% in 0.5% Klucel HF, 1 day at RT
[18] = 2% in 0.8% Tween 80, 1 day at RT
[19] = 5% solution, 1 day at RT (diluted 1:100 in pH 6.8 buffer)
[20] = Bulk stability, 2 weeks, 50° C.
[21] = Bulk stability, 2 weeks, 50° C./20% water
[22] = Bulk stability, 2 weeks, 50° C./75% r.h.
[23] = Light study, 1200 kLux (300-800 nm)
[24] = Mixture 1: 50% PVP + 50% Crospovidone, 50° C./75% r.h., 2 weeks
[25] = Mixture 2: 50% Starch 1500 + 5% MCC 102, 50° C./75% r.h., 2 weeks
[26] = Mixture 3: 5% PVP + 5% Crospovidone + 10% Starch 1500 + 80% MCC 102, 50° C./75% r.h., 2 weeks
[27] = Mixture 4: 99% Lactose + 1% BHT/BHA, 50° C./75% r.h., 2 weeks
[28] = Mixture 5: 99% Mannitol + 1% BHT/BHA, 50° C./75% r.h., 2 weeks
[29] = Mixture 6: 50% Mannitol + 47% HPCLH21 + 1% BHT/BHA + 2% Magnesium Stearate, 50° C./75% r.h., 2 weeks
[30] = Mixture 7: 50% Cetyl Alcohol + 49% HPCLH21 + 1% Magnesium Stearate, 50° C./75% r.h., 2 weeks
[31] = Mixture 8: 100% PEG 3350, 50° C./75% r.h., 2 weeks

## Cc1[nH]c2ccccc2c1CCNCc1ccc(/C=C/C(=O)NO)cc1.O=C(O)/C=C\C(=O)O [Maleate, 1:1 maleate salt of N-hydroxy-3-[4-[[[2-(2-methyl-1H-indol-3-yl)ethyl]amino]methyl]phenyl]-2E-2-propenamide]
[1]
  aqueous solubility: 2600 µg/mL
  solubility in methanol and ethanol, in words: high
  solubility in other common / remaining organic solvents, in words: considerable
[1]; 0.1N HCl
  Solubility: 700 µg/mL
[1]; 2-Propanol
  Solubility: 1600 µg/mL
[1]; Acetone
  Solubility: 3000 µg/mL
[1]; Ethanol
  Solubility: 7200 µg/mL
[1]; Ethyl acetate
  Solubility: 5600 µg/mL
[1]; Methanol
  Solubility: 57000 µg/mL
[1]; Propylene glycol
  Solubility: 32400 µg/mL
[1]; Water
  Solubility: 2600 µg/mL
[1]; estimated from mg/mL assuming solution density 1 g/mL
  approximate solubility in water as %: approximately 0.3%
[1]; pH = 6.8 buffer
  Solubility: 1500 µg/mL
[2]
  pH of saturated solution: 5.54
[3]
  intrinsic dissolution (rate), in words: good
[3]; HCl 0.1N
  Intrinsic Dissolution Rate: 1.00 mg min^−1 cm^−2
[3]; [10]
  Intrinsic Dissolution Rate: 0.32 mg min^−1 cm^−2
[4]; [11]
  pH of initial mixture: 3.51
[4]; [12]
  % DP (total degradation products): 0.83 % area
  assay: [100.7]
[4]; 2 mg/mL in water
  pH of initial mixture: 5.40
[4]; [13]
  % DP (total degradation products): 0.80 % area
  CL (appearance): A↓
  assay: [97.26]
[4]; [14]
  % DP (total degradation products): 1.59 % area
  CL (appearance): A↓*
[4]; [15]
  assay: [97.48]
[4]; 2% in 0.5% CMC, 1 day at RT
  % DP (total degradation products): 0.58 % area
  CL (appearance): A↓↓
  assay: [77.42]
[4]; [16]
  % DP (total degradation products): 0.60 % area
  assay: [94.63]
[4]; [17]
  % DP (total degradation products): 0.55 % area
  assay: [96.78]
[4]; [18]
  % DP (total degradation products): 0.66 % area
  assay: [96.83]
[4]; [19]
  % DP (total degradation products): 0.67 % area
  CL (appearance): A↓
  assay: [97.92]
[4]
  stability characteristics, in words: very good stability
  Unstressed (% Area): 99.48% Area
[5]; 80° C.
  Bulk stability (XRPD): no change
[5]; 80° C./75% r.h.
  Bulk stability (XRPD): no change
[5]; [20]
  % DP (total degradation products): 0.71 % area
  assay: [102.2]
[5]; [21]
  % DP (total degradation products): 0.71 % area
  assay: [101.1]
[5]; [22]
  % DP (total degradation products): 0.58 % area
  assay: [100.0]
[5]; [23]
  % DP (total degradation products): 3.02 % area
  CL (appearance): D (D = strong discoloration)
  assay: [96.72]
[6]; [24]
  % DP (total degradation products): 0.5 % area
  % DS (drug substance): 99.5 % area
[6]; [25]
  % DP (total degradation products): 0.3 % area
  % DS (drug substance): 99.7 % area
[6]; [26]
  % DP (total degradation products): 0.3 % area
  % DS (drug substance): 99.7 % area
[6]; [27]
  % DP (total degradation products): 0.3 % area
  % DS (drug substance): 99.7 % area
[6]; [28]
  % DP (total degradation products): 0.3 % area
  % DS (drug substance): 99.7 % area
[6]; [29]
  % DP (total degradation products): 0.3 % area
  % DS (drug substance): 99.7 % area
[6]; [30]
  % DP (total degradation products): 0.3 % area
  % DS (drug substance): 99.7 % area
[6]; [31]
  % DP (total degradation products): 0.4 % area
  % DS (drug substance): 99.6 % area
[6]; Standard, freshly prepared
  % DP (total degradation products): 0.2 % area
  % DS (drug substance): 99.8 % area
[6]
  stability with all excipient mixtures tested, in words: very good stability
[7]
  pH of saturated solution: 5.70

## 2:1 L-tartarate salt of N-hydroxy-3-[4-[[[2-(2-methyl-1H-indol-3-yl)ethyl]amino]methyl]phenyl]-2E-2-propenamide
[2]
  pH of saturated solution: 6.07
[3]
  intrinsic dissolution (rate), in words: good
[3]; HCl 0.1N
  Intrinsic Dissolution Rate: 1.16 mg min^−1 cm^−2
[3]; [10]
  Intrinsic Dissolution Rate: 0.38 mg min^−1 cm^−2
[4]; [11]
  pH of initial mixture: 3.58
[4]; [12]
  % DP (total degradation products): 0.86 % area
  CL (appearance): A↓
  assay: [100.5]
[4]; 2 mg/mL in water
  pH of initial mixture: 6.82
[4]; [13]
  % DP (total degradation products): 1.21 % area
  CL (appearance): A↓
  assay: [98.91]
[4]; [14]
  % DP (total degradation products): 1.53 % area
  CL (appearance): A↓*
[4]; [15]
  assay: [96.89]
[4]; 2% in 0.5% CMC, 1 day at RT
  % DP (total degradation products): 0.62 % area
  CL (appearance): A↓↓
  assay: [79.98]
[4]; [16]
  % DP (total degradation products): 0.54 % area
  assay: [97.54]
[4]; [17]
  % DP (total degradation products): 0.58 % area
  assay: [96.39]
[4]; [18]
  % DP (total degradation products): 0.54 % area
  assay: [96.60]
[4]; [19]
  % DP (total degradation products): 0.71 % area
  CL (appearance): A↓
  assay: [98.39]
[4]
  stability characteristics, in words: very good stability
  Unstressed (% Area): 99.62% Area
[5]; 80° C.
  Bulk stability (XRPD): no change
[5]; 80° C./75% r.h.
  Bulk stability (XRPD): no change
[5]; [20]
  % DP (total degradation products): 0.84 % area
  assay: [99.48]
[5]; [21]
  % DP (total degradation products): 1.61 % area
  assay: [97.07]
[5]; [22]
  % DP (total degradation products): 1.36 % area
  assay: [97.66]
[5]; [23]
  % DP (total degradation products): 0.82 % area
  assay: [100.4]
[6]; [24]
  % DP (total degradation products): 1.2 % area
  % DS (drug substance): 98.8 % area
[6]; [25]
  % DP (total degradation products): 1.3 % area
  % DS (drug substance): 98.7 % area
[6]; [26]
  % DP (total degradation products): 1.3 % area
  % DS (drug substance): 98.7 % area
[6]; [27]
  % DP (total degradation products): 1.3 % area
  % DS (drug substance): 98.7 % area
[6]; [28]
  % DP (total degradation products): 1.3 % area
  % DS (drug substance): 98.7 % area
[6]; [29]
  % DP (total degradation products): 1.3 % area
  % DS (drug substance): 98.7 % area
[6]; [30]
  % DP (total degradation products): 1.3 % area
  % DS (drug substance): 98.7 % area
[6]; [31]
  % DP (total degradation products): 1.3 % area
  % DS (drug substance): 98.7 % area
[6]; Standard, freshly prepared
  % DP (total degradation products): 0.6 % area
  % DS (drug substance): 99.4 % area
[6]
  stability with all excipient mixtures tested, in words: very good stability
[7]
  pH of saturated solution: 5.57

## 2:1 malate (hemi-malate) salt of N-hydroxy-3-[4-[[[2-(2-methyl-1H-indol-3-yl) ethyl]amino]methyl]phenyl]-2E-2-propenamide
[8]
  approximate aqueous solubility: ~1400 µg/mL
  Form by XRPD of solid residue, Water: No change
[8]; EQ t > 20 hours, ambient temperature, UV-VIS
  S (approximate solubility), pH 1: 0.42 mg/mL
[8]; EQ t > 20 hours, ambient temperature, gravimetric
  S (approximate solubility), Water: 1380 µg/mL
[8]; listed as malate
  Form by XRPD of solid residue, Water: No structural change
[9]
  Solid State (EQ 93% r.h.) Form by XRPD: No change
